This note sets out measurements from publication PMC8783508, “A novel D-amino acid peptide with therapeutic potential (ISAD1) inhibits aggregation of neurotoxic disease-relevant mutant Tau and prevents Tau toxicity in vitro” (Alzheimer's Research & Therapy, 2022).

One data set concerns the target T1, Tau^FLΔK (Homo sapiens, UniProt P10636, DEL597-597).
T1 construct: Tau^FLΔK Full-length Tau mutant ΔK280
The experiment in a line: Fibrillization of Tau^FLΔK monitored by ThS assay. The class given is biochemical. The conditions noted are these: Tau:peptide = 1:1; 1:5; 1:10. As for the experimental part:
(§1) For Tau fibrillization inhibition assays, 10 μM Tau mutant protein (Tau^RDΔK, Tau^FLΔK, Tau^FL-A152T, Tau^FL-P301L) was incubated in BES buffer (N,N-bis(2-hydroxyethyl)-2-aminoethanesulfonic acid, pH 7) in the presence of 2.5 μM heparin at 37 °C for 24 h with and without novel D-peptides (ISAD1 and ISAD1rev) at different concentrations (1 nM to 200 μM). Final concentration of 20 μM ThS was used for monitoring fibrillization. The assay was performed with 40-μl sample volume per well in a 384-well microtiter plate (Thermo LabSystems, Dreieich, Germany). The fibrillization of Tau was monitored by ThS and the relative fluorescence intensity of ThS was read out at 440 excitation/521 emission nm in a Tecan micro titer plate reader (Tecan, Männedorf, Switzerland).

Another data set addresses T2, Tau^FL-A152T (Homo sapiens, UniProt P10636, A469T).
T2 construct: Tau^FL-A152T Full-length Tau mutant A152T
The experiment in a line: Fibrillization of Tau^FL-A152T monitored by ThS assay. The data set is classed as biochemical. The conditions noted are these: Tau:peptide = 1:1; 1:5; 1:10. As for the experimental part:
as §1

Data set [1] is described as follows: DLS of D-peptides alone with heparin. The class given is physicochemical. To be noted: 100 μM D-peptide, 2.5 µM heparin 16000, 24 hours. As for the experimental part:
After the ThS assay (end time point, 24 h), the samples were used for DLS measurements. Twenty microliters of the sample was placed in a quartz batch cuvette (ZEN2112) and the measurement was performed at 25 °C in a Zetasizer Nano S instrument (Malvern Instruments, Herrenberg, Germany). The sample was thermally equilibrated at 25 °C for 2 min. The mean value of the intensities of an individual sample was determined over 3 measurements with 15 runs each. Analysis and averaging of the collected data were performed with the Zetasizer software 7.11 (Malvern Instruments, Herrenberg, Germany) and the result is represented as a volume graph. Tau^RDΔK fibrils (Tau+heparin) formed in the absence of D-peptides was used as a positive control.
100 μM of D-peptides and 2.5 µM of heparin 16000 (H16K) were incubated together for 24 hours and measured by DLS.

In a further data set the target is T3, Tau^RDΔK (Homo sapiens, UniProt P10636, DEL597-597).
T3 construct: Tau^RDΔK Pro-aggregant repeat domain Tau mutant ΔK280; made in house
Briefly: Pelleting assay and western blot, Tau^RDΔK. To be noted: 10 μM Tau, 100 μM peptide, 24 h, 61,000 rpm 60 min, K9JA western blot. The data set is classed as biochemical. As for the experimental part: After the ThS assay (end time point, 24 h), 70 μl of each sample (pooled together from 2 wells) was centrifuged in a Beckmann coulter (Optima Max Ultra Centrifuge, TLA 100.3 rotor) at 61,000 rpm for 60 min at 4 °C. After centrifugation, the supernatant was separated from the pellet. Then, the pellet was dissolved in BES buffer in an equal volume as the supernatant. For the following western blot, 12-μl samples were mixed with 3-μl SDS-sample buffer (5x), heated for 5 min at 95 °C, and loaded onto a 8–16% SDS tris-glycine-gel (BioRad, Feldkirchen, Germany). The proteins were transferred to a polyvinylidene fluoride (PVDF) membrane. After the transfer, the membrane was blocked in 5% non-fat dry milk. After washing the membrane three times for 10 min with TBST, the primary pan-Tau K9JA antibody (1:5000; Agilent, Waldbronn, Germany) was incubated for 1 h at RT with gentle agitation, followed by again 3-times washing with TBST. For detection on western blot, the secondary antibody (goat anti-rabbit HRP, Agilent, Waldbronn, Germany) was incubated in a 1:2000 dilution for 1 h at RT with shaking. […] The quantification of intensities was performed using ImageJ.
For orientation: Immunoblotting shows a protein as a band on a membrane.

In data set [2] the test system is N2a-Tau^RDΔK cells. Briefly: LDH release with the peptides alone. The conditions noted are these: 25, 50, 100, 250 μM peptide, 24 h, n = 3. The class given is cell-based. As for the experimental part:
N2a cells expressing Tau^RDΔK were plated on poly D-lysine-coated 96-well plates with a density of 25,000 cells/well. At 70 to 80% confluence, the cells were treated for 24 h with various concentrations of D-peptides (25, 50, 100, and 250 μM) or Tau^RDΔK (10 μM final concentration) in the presence of ISAD1 and ISAD1rev (100 μM final concentration). The ability of D-peptides to neutralize the toxicity of Tau^RDΔK oligomers/fibrils was investigated by measuring the amount of released LDH (Roche Diagnostics, Mannheim, Germany). Therefore, 50 μL of each well was transferred to a fresh 96-well plate and 50 μL of reagent was added followed by a 30-min incubation period at RT. Finally, 50 μL of stop solution (1 N HCl) was added and absorbance was recorded at 492 nm (TECAN spectrofluorometer, Männedorf, Switzerland). Absorbance values were corrected by background values and the percentage of LDH release was calculated.

The subject of data set [3] is N2a-Tau^RDΔK cells. Briefly: ROS measurement (DCF), externally added Tau^RDΔK aggregates. The class given is cell-based. The conditions noted are these: 10 μM Tau, 100 μM peptide final, pre-incubated, 30 min, n = 3. How it is done: Toxic Tau oligomers and fibrils can induce the production of superoxides and peroxy radicals in cells which can be measured with fluorescent dye dichlorodihydrofluorescein (DCF). N2a-Tau^RDΔK cells were plated on D-lysine-coated 96-well plates. At 70 to 80% confluence, the cells were washed once with warm PBS and then incubated with 20 μM of DCF (Abcam, Cambridge, UK) diluted in 1X dilution buffer for 30 min at 37 °C. After 30 min, the cells were washed once with 1X PBS. After washing, the cells were incubated with desired concentrations of different samples (10 μM oligomers/fibrils ± treated with 100 μM D-peptides or controls) for 30 min. The cytotoxic agent TBHP (tert-butylhydroperoxide) was used as the positive control. The fluorescence intensity was measured using a spectrofluorometer (Tecan, Männedorf, Switzerland; excitation at 485 nm and emission at 535 nm).

The test system of data set [4] is N2a-Tau^RDΔK cells. The experiment in a line: MTT, intracellularly expressed Tau^RDΔK (Dox induced). The class given is cell-based. The conditions noted are these: 1 μg/ml doxycycline, 72 h, n = 2. How it is done: After the N2a-Tau^RDΔK cells reached the desired confluence (25,000 cells/well or 80%), intracellular Tau^RDΔK expression was induced by the addition of 1 μg/ml Dox. The cells were plated on poly D-lysine-coated 96-well plates (Greiner Bio-One GmbH, Frickenhausen, Germany) and treated with ISAD1 and ISAD1rev in a concentration range of 25 to 250 μM. TritonX-100 (2%) was used as a positive control. The incubation and Tau^RDΔK expression time was 72 h. Following incubation, cell viability was studied by measuring MTT and LDH release in accordance with the manufacturer’s protocol.

Non-standard residues stand in square brackets, D forms with d. Residues, ends and D or L forms follow the SMILES beside them. A value given as a limit tells only on which side of the number the result lay.

T2 sequence (P10636 1-441 isoform P10636-8 A152T): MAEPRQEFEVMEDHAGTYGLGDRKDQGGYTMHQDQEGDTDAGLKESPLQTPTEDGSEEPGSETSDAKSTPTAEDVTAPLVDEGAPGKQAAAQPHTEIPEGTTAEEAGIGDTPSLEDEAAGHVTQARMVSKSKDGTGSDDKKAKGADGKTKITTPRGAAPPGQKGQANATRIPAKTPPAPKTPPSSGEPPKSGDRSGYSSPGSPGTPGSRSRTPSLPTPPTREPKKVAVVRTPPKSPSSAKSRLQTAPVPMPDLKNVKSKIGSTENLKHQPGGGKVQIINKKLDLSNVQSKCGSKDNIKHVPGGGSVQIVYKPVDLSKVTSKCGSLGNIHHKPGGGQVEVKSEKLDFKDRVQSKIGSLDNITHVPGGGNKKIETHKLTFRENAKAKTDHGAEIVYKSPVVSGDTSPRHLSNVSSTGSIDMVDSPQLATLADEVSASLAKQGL
T1 sequence (P10636 with tags, fused parts or gaps isoform P10636-8 DEL280-280): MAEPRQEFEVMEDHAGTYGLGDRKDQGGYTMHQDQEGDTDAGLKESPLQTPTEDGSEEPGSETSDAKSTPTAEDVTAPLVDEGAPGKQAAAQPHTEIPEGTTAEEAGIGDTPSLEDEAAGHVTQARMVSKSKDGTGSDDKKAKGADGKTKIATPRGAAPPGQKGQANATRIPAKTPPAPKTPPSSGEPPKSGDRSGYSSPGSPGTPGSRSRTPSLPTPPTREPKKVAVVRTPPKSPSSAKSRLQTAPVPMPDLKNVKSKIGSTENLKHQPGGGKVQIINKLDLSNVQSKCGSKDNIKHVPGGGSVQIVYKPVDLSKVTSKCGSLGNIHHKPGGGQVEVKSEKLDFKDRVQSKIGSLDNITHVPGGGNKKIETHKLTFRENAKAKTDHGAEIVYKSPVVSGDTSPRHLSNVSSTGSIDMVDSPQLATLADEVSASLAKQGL
T3 sequence (P10636 with tags, fused parts or gaps DEL597-597): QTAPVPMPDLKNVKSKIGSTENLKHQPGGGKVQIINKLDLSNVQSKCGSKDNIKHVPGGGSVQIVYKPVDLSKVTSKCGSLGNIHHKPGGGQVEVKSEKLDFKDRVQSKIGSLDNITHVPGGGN

`CC(C)C[C@@H](NC(=O)[C@@H](CO)NC(=O)[C@@H](CC(C)C)NC(=O)[C@H](NC(=O)[C@@H](CC(=O)O)NC(=O)[C@@H](C)NC(=O)[C@@H](C)NC(=O)[C@H](N)CO)[C@H](C)O)C(=O)N[C@H](CCCCN)C(=O)N[C@H](Cc1ccccc1)C(=O)N[C@@H](C(=O)N[C@H](CO)C(=O)O)C(C)C` [ISAD1rev] (H-[dS][dA][dA][dD][dT][dL][dS][dL][dK][dF][dV][dS]-OH; N-terminus and C-terminus assumed): the “Inhibition of Tau^FLΔK fibrillization, in words” value on Tau^FLΔK was “weak inhibitory effects”. In addition, the “Inhibition of Tau^FL-A152T fibrillization, in words” value at Tau^FL-A152T is reported as “weak inhibitory effects”. In addition, the “Particle size of peptide alone in the presence of heparin (DLS)” value in data set [1] is listed as below 2 nm. Besides, the “Distribution of Tau^RDΔK between pellet and supernatant” value on Tau^RDΔK was “only apparent in the pellet”. For the same compound, in the data set on N2a-Tau^RDΔK cells [2], the “Cytotoxicity, LDH release” value is given as “do not induce toxic effects”. The “Effect on toxicity of Tau aggregates, ROS level” value in the data set on N2a-Tau^RDΔK cells [3] was “reducing intracellular ROS levels”. In the data set on N2a-Tau^RDΔK cells [4], the “Cell viability at 50 μM peptide” value is “no increase in cell viability”.
